Measurements as given in the supplement of paper PMC10307832.

The cell lines below were run with CC(C)(C)c1cc(NC(=O)Nc2ccc(-c3cn4c(n3)sc3cc(OCCN5CCOCC5)ccc34)cc2)no1 [Quizartinib] + CC1(C)CCC(c2ccc(Cl)cc2)=C(CN2CCN(c3ccc(C(=O)NS(=O)(=O)c4ccc(N[C@H](CCN5CCOCC5)CSc5ccccc5)c(S(=O)(=O)C(F)(F)F)c4)cc3)CC2)C1 [Navitoclax] (partner 0.5 µM) (assay: relative viability (nuclei count vs DMSO), 5 days (fraction); higher = more cells survive). Conditions: first compound 0.001 µM.
Procedure, shortened: (§1)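 For relative viability, nuclei counts in treated wells were divided by those in vehicle wells. Lung cancer cell lines had been pin-tool dosed in 1536-well plates the day after seeding and cultured for 5 days, then fixed and stained in one step (final 0.05% Triton X-100, 1% formaldehyde, 1 ug/ml Hoechst) and imaged at 4×. Doses were one drug alone or a fixed anchor-drug dose plus five library-drug doses (not always all listed) in √10 steps, and values are duplicate-plate medians.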
Work on LOU-NH91 yielded a relative viability of 0.732.
NCI-H596 was tested, and the relative viability was 0.931.
NCI-H1666 showed a relative viability of 0.773.
For NCI-H838, the relative viability was 1.09.
With NCI-H322M the relative viability was 1.1.
NCI-H1793 gave a relative viability of 0.414.
With NCI-H441 the relative viability was 0.562.
SW 1573 showed a relative viability of 1.1.
In the case of 201T, the relative viability is reported as 1.24.
Cell Line NCI-H1755 has a relative viability of 0.925.
NCI-H1650 showed a relative viability of 0.928.
In the case of ChaGo-K-1, the relative viability is reported as 0.439.
Cell Line COR-L23 has a relative viability of 1.01.
NCI-H2085 was tested, and the relative viability was 1.03.
Cell Line NCI-H460 has a relative viability of 1.
For BEN, the relative viability was 0.0726.
PC-3 [JPC-3] showed a relative viability of 0.703.
LC-2-ad was tested, and the relative viability was 0.317.

Same assay, conditions: first compound 0.003162 µM
Work on LOU-NH91 yielded a relative viability of 0.766.
In the case of NCI-H596, the relative viability is reported as 0.885.
NCI-H1666 gave a relative viability of 0.949.
For NCI-H23, the relative viability was 0.852.
With NCI-H838 the relative viability was 1.06.
NCI-H322M was tested, and the relative viability was 1.08.
Work on NCI-H1793 yielded a relative viability of 0.304.
Cell Line NCI-H441 has a relative viability of 0.567.
In the case of SW 1573, the relative viability is reported as 0.864.
201T showed a relative viability of 1.21.
NCI-H1755 showed a relative viability of 0.976.
With NCI-H1650 the relative viability was 1.25.
Cell Line ChaGo-K-1 has a relative viability of 1.02.
Cell Line COR-L23 has a relative viability of 0.968.
NCI-H2085 gave a relative viability of 1.09.
For NCI-H460, the relative viability was 1.09.
For BEN, the relative viability was 0.0683.
For PC-3 [JPC-3], the relative viability was 0.859.
LC-2-ad showed a relative viability of 0.446.

Same assay, conditions: first compound 0.01 µM
LOU-NH91 gave a relative viability of 0.808.
Work on NCI-H596 yielded a relative viability of 0.985.
With NCI-H1666 the relative viability was 1.06.
NCI-H23 showed a relative viability of 0.915.
NCI-H838 was tested, and the relative viability was 1.08.
NCI-H322M showed a relative viability of 1.19.
For NCI-H1793, the relative viability was 0.496.
NCI-H441 showed a relative viability of 1.29.
SW 1573 gave a relative viability of 0.954.
For 201T, the relative viability was 1.25.
NCI-H1755 gave a relative viability of 1.01.
For NCI-H1650, the relative viability was 1.35.
ChaGo-K-1 gave a relative viability of 1.02.
Work on COR-L23 yielded a relative viability of 1.02.
In the case of NCI-H2085, the relative viability is reported as 1.12.
NCI-H460 gave a relative viability of 1.24.
In the case of BEN, the relative viability is reported as 0.107.
Cell Line PC-3 [JPC-3] has a relative viability of 0.768.
Cell Line LC-2-ad has a relative viability of 0.518.

Same assay, conditions: first compound 0.03162 µM
With LOU-NH91 the relative viability was 0.562.
With NCI-H596 the relative viability was 0.883.
NCI-H1666 was tested, and the relative viability was 0.743.
NCI-H23 showed a relative viability of 0.773.
NCI-H838 gave a relative viability of 1.06.
NCI-H322M showed a relative viability of 1.37.
Cell Line NCI-H1793 has a relative viability of 0.423.
For NCI-H441, the relative viability was 0.591.
For SW 1573, the relative viability was 0.981.
In the case of 201T, the relative viability is reported as 1.24.
Work on NCI-H1755 yielded a relative viability of 1.
COR-L23 was tested, and the relative viability was 0.875.
With NCI-H2085 the relative viability was 1.15.
Cell Line BEN has a relative viability of 0.051.
PC-3 [JPC-3] showed a relative viability of 0.835.
LC-2-ad was tested, and the relative viability was 0.453.

Same assay, conditions: first compound 0.1 µM
In the case of LOU-NH91, the relative viability is reported as 0.832.
NCI-H596 was tested, and the relative viability was 0.864.
For NCI-H1666, the relative viability was 0.866.
Work on NCI-H23 yielded a relative viability of 0.472.
Cell Line NCI-H838 has a relative viability of 0.815.
Cell Line NCI-H322M has a relative viability of 1.23.
With NCI-H1793 the relative viability was 0.331.
Cell Line NCI-H441 has a relative viability of 1.05.
For SW 1573, the relative viability was 0.968.
Work on 201T yielded a relative viability of 1.25.
NCI-H1755 showed a relative viability of 0.926.
Work on NCI-H1650 yielded a relative viability of 1.24.
ChaGo-K-1 was tested, and the relative viability was 1.52.
COR-L23 was tested, and the relative viability was 1.03.
NCI-H2085 showed a relative viability of 1.
Work on NCI-H460 yielded a relative viability of 1.13.
With BEN the relative viability was 0.0586.
Cell Line PC-3 [JPC-3] has a relative viability of 0.821.
Work on LC-2-ad yielded a relative viability of 0.394.

The cell lines below were run with COCC[n+]1c2c(n(Cc3cnccn3)c1C)C(=O)c1ccccc1C2=O [YM155] + CC1(C)CCC(c2ccc(Cl)cc2)=C(CN2CCN(c3ccc(C(=O)NS(=O)(=O)c4ccc(N[C@H](CCN5CCOCC5)CSc5ccccc5)c(S(=O)(=O)C(F)(F)F)c4)cc3)CC2)C1 [Navitoclax] (partner 0.5 µM) in the same assay as above. Conditions: first compound 0.002 µM.
Procedure, shortened: as §1
With LOU-NH91 the relative viability was 0.748.
Cell Line NCI-H1666 has a relative viability of 0.991.
With NCI-H23 the relative viability was 0.727.
NCI-H838 gave a relative viability of 1.04.
In the case of NCI-H322M, the relative viability is reported as 1.24.
NCI-H441 showed a relative viability of 0.56.
For SW 1573, the relative viability was 1.05.
Work on 201T yielded a relative viability of 1.26.
For NCI-H1755, the relative viability was 0.996.
Cell Line NCI-H1650 has a relative viability of 1.23.
Cell Line ChaGo-K-1 has a relative viability of 1.14.
COR-L23 gave a relative viability of 0.905.
In the case of NCI-H2085, the relative viability is reported as 1.06.
For NCI-H460, the relative viability was 1.17.
BEN showed a relative viability of 0.0838.
Work on PC-3 [JPC-3] yielded a relative viability of 0.867.
LC-2-ad showed a relative viability of 0.414.

Same assay, conditions: first compound 0.006325 µM
LOU-NH91 gave a relative viability of 0.677.
For NCI-H596, the relative viability was 0.972.
For NCI-H23, the relative viability was 0.879.
Work on NCI-H838 yielded a relative viability of 1.21.
For NCI-H322M, the relative viability was 1.23.
Cell Line NCI-H1793 has a relative viability of 0.337.
With NCI-H441 the relative viability was 0.633.
Cell Line SW 1573 has a relative viability of 0.959.
In the case of 201T, the relative viability is reported as 1.18.
NCI-H1755 was tested, and the relative viability was 0.981.
Work on NCI-H1650 yielded a relative viability of 1.08.
With ChaGo-K-1 the relative viability was 0.928.
In the case of COR-L23, the relative viability is reported as 0.877.
NCI-H2085 showed a relative viability of 0.989.
For NCI-H460, the relative viability was 1.23.
BEN gave a relative viability of 0.0769.
In the case of PC-3 [JPC-3], the relative viability is reported as 0.847.
LC-2-ad gave a relative viability of 0.479.

Same assay, conditions: first compound 0.02 µM
Work on LOU-NH91 yielded a relative viability of 0.725.
NCI-H596 gave a relative viability of 1.09.
NCI-H1666 was tested, and the relative viability was 0.996.
NCI-H23 showed a relative viability of 0.967.
In the case of NCI-H838, the relative viability is reported as 1.22.
NCI-H322M was tested, and the relative viability was 1.28.
With NCI-H1793 the relative viability was 0.422.
In the case of NCI-H441, the relative viability is reported as 0.554.
With SW 1573 the relative viability was 1.04.
201T gave a relative viability of 1.17.
NCI-H1755 gave a relative viability of 0.949.
NCI-H1650 showed a relative viability of 0.835.
ChaGo-K-1 showed a relative viability of 0.785.
COR-L23 was tested, and the relative viability was 0.505.
NCI-H2085 showed a relative viability of 0.99.
In the case of NCI-H460, the relative viability is reported as 1.27.
Work on BEN yielded a relative viability of 0.0788.
PC-3 [JPC-3] gave a relative viability of 0.871.
With LC-2-ad the relative viability was 0.456.

Same assay, conditions: first compound 0.06325 µM
LOU-NH91 showed a relative viability of 0.716.
NCI-H596 showed a relative viability of 1.03.
NCI-H1666 gave a relative viability of 0.861.
NCI-H23 showed a relative viability of 0.269.
In the case of NCI-H838, the relative viability is reported as 0.791.
Cell Line NCI-H322M has a relative viability of 1.47.
With NCI-H1793 the relative viability was 0.301.
In the case of NCI-H441, the relative viability is reported as 0.403.
Cell Line SW 1573 has a relative viability of 0.555.
201T gave a relative viability of 1.23.
In the case of NCI-H1755, the relative viability is reported as 1.06.
Work on NCI-H1650 yielded a relative viability of 0.23.
